# Patent EP3046573B1, “AMYLIN ANALOGUES” (Zealand Pharma A/S, priority 2013, dated 2015)
# Where two headings read alike, the source gives them in different places. Numbered stars: 1 amine (or outer) side, 2 acyl side, 3 side chain; on linkers, the order of the positions; unused ones are H or OH. Bridge positions count the residues as written; N and C are the ends. Square brackets hold non-standard residues; d marks the D form. Peptide text beside a SMILES is read from it. * marks the point of attachment. C20 diacid = O=C(O)CCCCCCCCCCCCCCCCCCC(=O)*; γGlu = O=C(O)[C@H](CCC(=O)[*:2])N[*:1]; NMeI = CC[C@H](C)[C@H](NC)C(=O)O; Sar = CNCC(=O)O
# Experiments:
# [1] = Solubility assessment (turbidity absorbance at 325 nm); assay type: physicochemical; conditions: stock 2 mg/ml diluted 1:1, ambient temperature (typically 25°C), n=1; for Solubility, Acetate buffer pH 4: 100 mM acetate buffer pH 4.0; for Solubility, Acetate buffer pH 5: 100 mM acetate buffer pH 5.0; for Solubility, Histidine buffer pH 6: 100 mM histidine buffer pH 6.0; for Solubility, Histidine buffer pH 7: 100 mM histidine buffer pH 7.0; for Solubility, Phosphate buffer pH 6: 100 mM phosphate buffer pH 6.0; for Solubility, Phosphate buffer pH 7: 100 mM phosphate buffer pH 7.0; for Solubility, Phosphate buffer pH 7.5: 100 mM phosphate buffer pH7.5
# Procedure, shortened: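 Stock 2 mg/ml peptide, H2O/HCl pH 2.5; 1:1 into 100 mM buffers: acetate pH 4.0/5.0, His pH 6.0/7.0, phosphate pH 6.0/7.0/7.5. A280 + A325, ~25°C, n=1. Soluble ≥ 1 mg/ml if A325 ≤ 0.02.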
# [2] = molecular target: T1, human calcitonin receptor (hCTR2) (Homo sapiens, UniProt P30988); assay: hCTR2 assay: induction of cAMP (AlphaScreen cAMP Assay kit) in COS7 cells expressing hCTR2; assay type: cell-based
# T1 construct: expressed in transfected cells
# T1 sequence (P30988 25-474): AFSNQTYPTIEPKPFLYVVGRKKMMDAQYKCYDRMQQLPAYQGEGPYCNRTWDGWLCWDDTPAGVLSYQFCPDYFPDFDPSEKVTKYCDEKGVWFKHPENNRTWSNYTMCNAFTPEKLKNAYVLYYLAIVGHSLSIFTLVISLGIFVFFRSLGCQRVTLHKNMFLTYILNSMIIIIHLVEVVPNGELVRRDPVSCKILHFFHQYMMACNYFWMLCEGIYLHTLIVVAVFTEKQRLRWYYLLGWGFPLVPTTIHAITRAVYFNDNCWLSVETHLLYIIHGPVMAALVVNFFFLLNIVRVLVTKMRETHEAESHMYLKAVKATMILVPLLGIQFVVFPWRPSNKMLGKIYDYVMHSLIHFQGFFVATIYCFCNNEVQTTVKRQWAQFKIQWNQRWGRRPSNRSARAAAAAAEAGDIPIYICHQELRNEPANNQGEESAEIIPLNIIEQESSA
# Procedure, shortened: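 Stable hCTR2 clone in RAMP-naive COS7 cells; peptides titrated in Tyrode buffer (pH 7.4) with 100 µM IBMX, 0.1% casein, 15 min at 37° C. cAMP read by AlphaScreen after lysis; EC50 and efficacy relative to pramlintide from 4PL fit.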
compound,measurement,setting,value
"CC[C@H](C)[C@@H](C(=O)N[C@@H](CC(C)C)C(=O)N[C@@H](CO)C(=O)N[C@H](C(=O)N[C@@H](CC(N)=O)C(=O)N[C@H](C(=O)NCC(=O)N[C@@H](CO)C(=O)N[C@@H](CC(N)=O)C(=O)N[C@H](C(=O)N1CCC[C@H]1C(N)=O)[C@@H](C)O)C(C)C)[C@@H](C)O)N(C)C(=O)CN(C)C(=O)[C@H](Cc1ccccc1)NC(=O)[C@H](CC(N)=O)NC(=O)[C@H](CC(N)=O)NC(=O)[C@H](CO)NC(=O)[C@H](CO)NC(=O)[C@H](Cc1c[nH]cn1)NC(=O)[C@H](Cc1c[nH]cn1)NC(=O)[C@H](CC(C)C)NC(=O)[C@H](Cc1ccccc1)NC(=O)[C@H](CCC(=O)O)NC(=O)[C@H](C)NC(=O)[C@H](CC(C)C)NC(=O)[C@H](CCCNC(=N)N)NC(=O)[C@H](CCC(N)=O)NC(=O)[C@@H](NC(=O)[C@H](C)NC(=O)[C@@H]1CSSC[C@H](NC(=O)[C@H](CCCNC(=N)N)NC(=O)CC[C@H](NC(=O)CCCCCCCCCCCCCCCCCCC(=O)O)C(=O)O)C(=O)N[C@@H](CC(N)=O)C(=O)N[C@@H]([C@@H](C)O)C(=O)N[C@@H](C)C(=O)N[C@@H]([C@@H](C)O)C(=O)N1)[C@@H](C)O [Compound 26, [19CD]-isoGlu-RC()NTATC()ATQRLAEFLHHSSNNF-Gly(Me)-Ile(Me)-LSTNVGSNTP-NH2] ({C20 diacid-γGlu}-RCNTATCATQRLAEFLHHSSNNF[Sar][NMeI]LSTNVGSNTP-NH2; disulfide 2-7)","Solubility, Acetate buffer pH 4",[1],SS (SS indicates solubility ≥ 1mg/ml)
same,"Solubility, Acetate buffer pH 5",[1],SS (SS indicates solubility ≥ 1mg/ml)
same,"Solubility, Histidine buffer pH 6",[1],SS (SS indicates solubility ≥ 1mg/ml)
same,"Solubility, Histidine buffer pH 7",[1],SS (SS indicates solubility ≥ 1mg/ml)
same,"Solubility, Phosphate buffer pH 6",[1],SS (SS indicates solubility ≥ 1mg/ml)
same,"Solubility, Phosphate buffer pH 7",[1],SS (SS indicates solubility ≥ 1mg/ml)
same,"Solubility, Phosphate buffer pH 7.5",[1],SS (SS indicates solubility ≥ 1mg/ml)
same,EC50,"[2]; cAMP induction in COS7 cells expressing hCTR2, average of a minimum of 3 determinations, read-out: hCTR2 EC50",0.11 nM
"CC[C@H](C)[C@@H](C(=O)N[C@@H](CC(C)C)C(=O)N[C@@H](CO)C(=O)N[C@@H](CO)C(=O)N[C@H](C(=O)N[C@@H](CC(N)=O)C(=O)N[C@H](C(=O)NCC(=O)N[C@@H](CO)C(=O)N[C@@H](CC(N)=O)C(=O)N[C@H](C(=O)N[C@@H](Cc1ccc(O)cc1)C(N)=O)[C@@H](C)O)C(C)C)[C@@H](C)O)N(C)C(=O)[C@H](C)NC(=O)CN(C)C(=O)[C@H](Cc1ccccc1)NC(=O)[C@H](CC(N)=O)NC(=O)[C@H](CC(N)=O)NC(=O)[C@H](CO)NC(=O)[C@H](CO)NC(=O)[C@H](CCCNC(=N)N)NC(=O)[C@H](Cc1c[nH]cn1)NC(=O)[C@H](CC(C)C)NC(=O)[C@H](Cc1ccccc1)NC(=O)[C@H](CCC(=O)O)NC(=O)[C@H](C)NC(=O)[C@H](CC(C)C)NC(=O)[C@H](CCCNC(=N)N)NC(=O)[C@H](CCC(N)=O)NC(=O)[C@@H](NC(=O)[C@H](C)NC(=O)[C@@H]1CSSC[C@H](NC(=O)[C@H](CCCNC(=N)N)NC(=O)CC[C@H](NC(=O)CCCCCCCCCCCCCCCCCCC(=O)O)C(=O)O)C(=O)N[C@@H](CC(N)=O)C(=O)N[C@@H]([C@@H](C)O)C(=O)N[C@@H](C)C(=O)N[C@@H]([C@@H](C)O)C(=O)N1)[C@@H](C)O [Compound 156, [19CD]-isoGlu-RC()NTATC()ATQRLAEFLHRSSNNF-Gly(Me)-A-Ile(Me)-LSSTNVGSNTY-NH2] ({C20 diacid-γGlu}-RCNTATCATQRLAEFLHRSSNNF[Sar]A[NMeI]LSSTNVGSNTY-NH2; disulfide 2-7)","Solubility, Acetate buffer pH 4",[1],SS (SS indicates solubility ≥ 1mg/ml)
same,"Solubility, Acetate buffer pH 5",[1],SS (SS indicates solubility ≥ 1mg/ml)
same,"Solubility, Histidine buffer pH 6",[1],SS (SS indicates solubility ≥ 1mg/ml)
same,"Solubility, Histidine buffer pH 7",[1],II (II indicates solubility ≤ 1 mg/ml)
same,"Solubility, Phosphate buffer pH 6",[1],SS (SS indicates solubility ≥ 1mg/ml)
same,"Solubility, Phosphate buffer pH 7",[1],II (II indicates solubility ≤ 1 mg/ml)
same,"Solubility, Phosphate buffer pH 7.5",[1],II (II indicates solubility ≤ 1 mg/ml)
same,EC50,[2],0.54 nM
